US4743617A, “Heterocyclyl-2-propyn-1-amines” (Merrell Dow Pharmaceuticals Inc., priority 1987, dated 1988)

How the values were obtained:
[1] = test system: spontaneously hypertensive rats; test: lowering of mean blood pressure in conscious spontaneously hypertensive rats (Table II, DBH inhibitory activity in vivo); details: 30 mg/kg (ip), unanesthetized spontaneously hypertensive rats
Description: The ability of the compounds of this invention to lower blood pressure can be determined in vivo using standard and well-known procedures such as those employed for the continuous recording of arterial blood pressure in conscious animals. For instance, test compounds are administered intraperitoneally (ip) to unanesthetized spontaneously hypertensive rats and the arterial blood pressure is monitored continuously. In tests utilizing the above procedure, the antihypertensive effect of the test compound is readily apparent as indicated by the degree of lowering of mean blood pressure (MBP) noted in Table II.

[2] = test system: dopamine-beta-hydroxylase (DBH); test: time-dependent DBH inhibitory activity in vitro (oxygen uptake, tyramine substrate); assay type: biochemical; details: Concentration 5 × 10^-5 M, preferably pH 5.0, 37° C.
Description: The DBH inhibitory properties of the compounds of this invention can readily be determined by standard and well-known procedures. […] The test compound is added at the desired concentration, and the system is incubated. At different time internals, aliquots are taken and DBH activity is measured using tyramine as the substrate. The reaction is followed by measuring oxygen uptake using a polarographic electrode and an oxygen monitor by the method of S. May et al., J. Bio. Chem. 256, 2258 (1981).

- t 1/2: time required for 50% log activity remaining [2]: 9.2 min.
Structure (SMILES): NCC#Cc1cccs1 [3-(2-thienyl)-2-propyn-1-amine]
- Duration [1]: 14 h
- Max Change MBP +/St. dev. [1]: -20+/-8 mm Hg
